Laboratory results reported in US20250049817A1, “JAK INHIBITOR WITH A VITAMIN D ANALOG FOR TREATMENT OF SKIN DISEASES” (INCYTE CORPORATION, priority 2020, published 2025).

Columns and labels:
[1] = test system: human JAK1 (a.a. 837-1142); test: In vitro JAK kinase assay (HTRF), JAK1; assay type: biochemical; settings: JAK2/JAK1 IC50 ratio, 1 mM ATP
[2] = target: human JAK1 (a.a. 837-1142) (Homo sapiens, UniProt P23458); test: In vitro JAK kinase assay (HTRF), JAK1; assay type: biochemical; settings: 1 mM ATP
keratinocyte cell line = settings: concentration-dependent; read-out: IC50 for decreasing keratinocyte cell line proliferation; cited from earlier work

Compound	JAK2/JAK1 [1]	IC50 [2]	IC50 (keratinocyte cell line)
N#CCC1(n2cc(-c3ncnc4[nH]ccc34)cn2)CN([C@H]2CC[C@@H](Oc3cc(CCO)nc(C(F)(F)F)n3)CC2)C1 [Compound 18, {1-(cis-4-{[6-(2-hydroxyethyl)-2-(trifluoromethyl)pyrimidin-4-yl]oxy}cyclohexyl)-3-[4-(7H-pyrrolo[2,3-d]pyrimidin-4-yl)-1H-pyrazol-1-yl]azetidin-3-yl}acetonitrile]	>10	< 10 nM	
C[C@@H](O)CNCc1cc(OC2CCN([C@H]3C[C@](CC#N)(n4cc(-c5ncnc6[nH]ccc56)cn4)C3)CC2)nc(C(F)(F)F)c1 [Compound 24, {trans-3-(4-{[4-({[(2R)-2-hydroxypropyl]amino}methyl)-6-(trifluoromethyl)pyridin-2-yl]oxy}piperidin-1-yl)-1-[4-(7H-pyrrolo[2,3-d]pyrimidin-4-yl)-1H-pyrazol-1-yl]cyclobutyl]acetonitrile]	>10	< 10 nM	
C=C1/C(=C\C=C2/CCC[C@]3(C)[C@@H]([C@H](C)CC[C@@H](O)C(C)C)CC[C@@H]23)C[C@@H](O)C[C@@H]1O [tacalcitol]			10 to 100 nM
C[C@H](NC(=O)c1cc(F)c(N2CC(CC#N)(n3cc(-c4ncnc5[nH]ccc45)cn3)C2)cc1F)C(F)(F)F [Compound 16, 4-{3-(cyanomethyl)-3-[4-(7H-pyrrolo[2,3-d]pyrimidin-4-yl)-1H-pyrazol-1-yl]azetidin-1-yl]-2,5-difluoro-N-[(1S)-2,2,2-trifluoro-1-methylethyl]benzamide]	>10	< 10 nM	
N#CC[C@]1(n2cc(-c3ncnc4[nH]ccc34)cn2)C[C@H](N2CCC(Oc3cc(CN4CC(O)C4)cc(C(F)(F)F)n3)CC2)C1 [Compound 11, {trans-3-(4-{[4-[(3-hydroxyazetidin-1-yl)methyl]-6-(trifluoromethyl)pyridin-2-yl]oxy}piperidin-1-yl)-1-[4-(7H-pyrrolo[2,3-d]pyrimidin-4-yl)-1H-pyrazo1-1-yl]cyclobutyl}acetonitrile]	>10	< 10 nM	
CCNCc1cc(O[C@H]2CC[C@@H](N3CC(CC#N)(n4cc(-c5ncnc6[nH]ccc56)cn4)C3)CC2)nc(C(F)(F)F)c1 [Compound 19, {1-(cis-4-{[4-[(ethylamino)methyl]-6-(trifluoromethyl)pyridin-2-yl]oxy}cyclohexyl)-3-[4-(7H-pyrrolo[2,3-d]pyrimidin-4-yl)-1H-pyrazol-1-yl]azetidin-3-yl}acetonitrile]	>10	< 10 nM	
N#CC[C@]1(n2cc(-c3ncnc4[nH]ccc34)cn2)C[C@H](N2CCC(Oc3cc(CN4CCC[C@@H]4CO)cc(C(F)(F)F)n3)CC2)C1 [Compound 13, {trans-3-(4-{[4-{[(2R)-2-(hydroxymethyl)pyrrolidin-1-yl]methyl}-6-(trifluoromethyl)pyridin-2-yl]oxy}piperidin-1-yl)-1-[4-(7H-pyrrolo[2,3-d]pyrimidin-4-yl)-1H-pyrazol-1-yl]cyclobutyl}acetonitrile]	>10	< 10 nM	
N#CCC(C1CCN(c2nc3cccnc3o2)C1)n1cc(-c2ncnc3[nH]ccc23)cn1 (stereo not shown) [Compound 7, 3-(1-[1,3]oxazolo[5,4-b]pyridin-2-ylpyrrolidin-3-yl)-3-[4-(7H-pyrrolo[2,3-d]pyrimidin-4-yl)-1H-pyrazol-1-yl]propanenitrile]	>10	< 10 nM	
N#CCC1(n2cc(-c3ncnc4[nH]ccc34)cn2)CN(C2CCN(C(=O)c3ccnc(C(F)(F)F)c3F)CC2)C1 [Compound 1, {1-{1-[3-Fluoro-2-(trifluoromethyl)isonicotinoyl]piperidin-4-yl}-3-[4-(7H-pyrrolo [2,3-d]pyrimidin-4-yl)-1H-pyrazol-1-yl]azetidin-3-yl}acetonitrile]	>10	< 10 nM	
C[C@@H](CO)NCc1cc(OC2CCN([C@H]3C[C@](CC#N)(n4cc(-c5ncnc6[nH]ccc56)cn4)C3)CC2)nc(C(F)(F)F)c1 [Compound 23, {trans-3-(4-{[4-({[(1S)-2-hydroxy-1-methylethyl]amino}methyl)-6-(trifluoromethyl)pyridin-2-yl]oxy}piperidin-1-yl)-1-[4-(7H-pyrrolo[2,3-d]pyrimidin-4-yl)-1H-pyrazol-1-yl]cyclobutyl}acetonitrile]	>10	< 10 nM	
N#CCC1(n2cc(-c3ncnc4[nH]ccc34)cn2)CN(C2CCN(C(=O)Nc3ccc(F)cc3C(F)(F)F)CC2)C1 [Compound 2, 4-{3-(Cyanomethyl)-3-[4-(7H-pyrrolo[2,3-d]pyrimidin-4-yl)-1H-pyrazol-1-yl]azetidin-1-yl}-N-[4-fluoro-2-(trifluoromethyl)phenyl] piperidine-1-carboxamide]	>10	< 10 nM	
N#CC[C@]1(n2cc(-c3ncnc4[nH]ccc34)cn2)C[C@H](N2CCC(Oc3cc(CN4CCC[C@H]4CO)cc(C(F)(F)F)n3)CC2)C1 [Compound 12, {trans-3-(4-{[4-{[(2S)-2-(hydroxymethyl)pyrrolidin-1-yl]methyl}-6-(trifluoromethyl)pyridin-2-yl]oxy}piperidin-1-yl)-1-[4-(7H-pyrrolo[2,3-d]pyrimidin-4-yl)-1H-pyrazol-1-yl]cyclobutyl}acetonitrile]	>10	< 10 nM	
C=C1/C(=C\C=C2/CCC[C@]3(C)[C@@H]([C@H](C)OCCC(C)(C)O)CC[C@@H]23)C[C@@H](O)C[C@@H]1O [maxacalcitol]			10 to 100 nM
N#CC[C@]1(n2cc(-c3ncnc4[nH]ccc34)cn2)C[C@H](N2CCN(C(=O)c3ccnc(C(F)(F)F)n3)CC2)C1 [Compound 10, [trans-1-[4-(7H-pyrrolo[2,3-d]pyrimidin-4-yl)-1H-pyrazol-1-yl]-3-(4-{[2-(trifluoromethyl)pyrimidin-4-yl]carbonyl}piperazin-1-yl)cyclobutyl]acetonitrile]	>10	< 10 nM	
N#CCC(CN1CCN(C(=O)c2ccc(C#N)cc2F)CC1)n1cc(-c2ncnc3[nH]ccc23)cn1 (stereo not shown) [Compound 8, 4-[(4-{3-cyano-2-[4-(7H-pyrrolo[2,3-d]pyrimidin-4-yl)-1H-pyrazol-1-yl]propyl}piperazin-1-yl)carbonyl]-3-fluorobenzonitrile]	>10	< 10 nM	
N#CCC1(n2cc(-c3ncnc4[nH]ccc34)cn2)CN([C@H]2CC[C@@H](Oc3cc(CN4CC[C@H](O)C4)cc(C(F)(F)F)n3)CC2)C1 [Compound 22, {1-(cis-4-{[4-{[(3S)-3-hydroxypyrrolidin-1-yl]methyl}-6-(trifluoromethyl)pyridin-2-yl]oxy}cyclohexyl)-3-[4-(7H-pyrrolo[2,3-d]pyrimidin-4-yl)-1H-pyrazol-1-yl]azetidin-3-yl}acetonitrile]	>10	< 10 nM	

Further lines, with some results ahead:

JAK2/JAK1 [1]	IC50 [2]	Compound	IC50 (keratinocyte cell line)
>10	< 10 nM	N#CC[C@]1(n2cc(-c3ncnc4[nH]ccc34)cn2)C[C@H](N2CCC(Oc3cc(CCO)cc(C(F)(F)F)n3)CC2)C1 [Compound 26, {trans-3-(4-{[4-(2-hydroxyethyl)-6-(trifluoromethyl)pyridin-2-yl]oxy}piperidin-1-yl)-1-[4-(7H-pyrrolo[2,3-d]pyrimidin-4-yl)-1H-pyrazol-1-yl]cyclobutyl]acetonitrile]	
>10	< 10 nM	N#CCC(C1CCN(c2cccc(Cl)n2)C1)n1cc(-c2ncnc3[nH]ccc23)cn1 (single isomer, unassigned) [Compound 6, 3-[1-(6-chloropyridin-2-yl)pyrrolidin-3-yl]-3-[4-(7H-pyrrolo[2,3-d]pyrimidin-4-yl)-1H-pyrazol-1-yl]propanenitrile]	
>10	< 10 nM	N#CCC1(n2cc(-c3ncnc4[nH]ccc34)cn2)CN([C@H]2CC[C@@H](Oc3cc(CN4CC[C@@H](O)C4)cc(C(F)(F)F)n3)CC2)C1 [Compound 21, {1-(cis-4-{[4-{[(3R)-3-hydroxypyrrolidin-1-yl]methyl}-6-(trifluoromethyl)pyridin-2-yl]oxy}cyclohexyl)-3-[4-(7H-pyrrolo[2,3-d]pyrimidin-4-yl)-1H-pyrazol-1-yl]azetidin-3-yl}acetonitrile]	
>10	< 100 nM	C[C@@H](O)c1nc2cnc3ccsc3c2n1[C@H]1CC[C@H](CC#N)OC1 [Compound 5, ((2R,5S)-5-{2-[(1R)-1-hydroxyethyl]-1H-imidazo[4,5-d]thieno[3,2-b]pyridin-1-yl}tetrahydro-2H-pyran-2-yl)acetonitrile]	
>10	< 10 nM	C[C@H](O)CNCc1cc(OC2CCN([C@H]3C[C@](CC#N)(n4cc(-c5ncnc6[nH]ccc56)cn4)C3)CC2)nc(C(F)(F)F)c1 [Compound 25, {trans-3-(4-{[4-({[(2S)-2-hydroxypropyl]amino}methyl)-6-(trifluoromethyl)pyridin-2-yl]oxy}piperidin-1-yl)-1-[4-(7H-pyrrolo[2,3-d]pyrimidin-4-yl)-1H-pyrazol-1-yl]cyclobutyl}acetonitrile]	
>10	< 10 nM	N#CCC1(n2cc(-c3ncnc4[nH]ccc34)cn2)CN(C2CCN(C(=O)c3ccnc(C(F)(F)F)n3)CC2)C1 [Compound 3, [3-[4-(7H-pyrrolo[2,3-d]pyrimidin-4-yl)-1H-pyrazol-1-yl]-1-(1-{[2-(trifluoromethyl)pyrimidin-4-yl]carbonyl}piperidin-4-yl)azetidin-3-yl]acetonitrile]	
>10	< 10 nM	N#CCC(CN1CCN(C(=O)c2ccc(C#N)cc2F)CC1)n1ccc(-c2ncnc3[nH]ccc23)c1 (stereo not shown) [Compound 9, 4-[(4-{3-cyano-2-[3-(7H-pyrrolo[2,3-d]pyrimidin-4-yl)-1H-pyrrol-1-yl]propyl}piperazin-1-yl)carbonyl]-3-fluorobenzonitrile]	
>10	< 10 nM	CC(C)(O)c1cc(O[C@H]2CC[C@@H](N3CC(CC#N)(n4cc(-c5ncnc6[nH]ccc56)cn4)C3)CC2)nc(C(F)(F)F)c1 [Compound 20, {1-(cis-4-{[4-(1-hydroxy-1-methylethyl)-6-(trifluoromethyl)pyridin-2-yl]oxy]cyclohexyl)-3-[4-(7H-pyrrolo[2,3-d]pyrimidin-4-yl)-1H-pyrazol-1-yl]azetidin-3-yl}acetonitrile]	
